Source: patent US9034863B2, “Compositions and methods for inhibiting entry of a hepatic virus” (The Board of Trustees of the University of Illinois, priority 2008, dated 2015)

How the values were obtained:
HCV = experiment: Prevention of HCV infection in mice with chimeric human livers; assay type: in vivo; details: 10 mg/kg/day oral gavage from ~7 days prior to infection
Excerpt: Alternatively, severe combined immunodeficient (SCID)/urokinase plasminogen activator (uPA) mice can be used. Mice are transplanted with primary human hepatocytes according to conventional methods (Azuma, et al. (2007) Nat. Biotechnol. 25:903-910; Bissig, et al. (2007) Proc. Natl. Acad. Sci. USA 104:20507-20511) and monitored for two months post-transplantation to assess repopulation efficiency by measuring human albumin serum levels. Using these models, mice can be assessed for the prevention of HCV infection or the inhibition of an already established infection.
Mice are injected with HCV positive human serum (of any HCV genotype) and HCV RNA serum levels are quantified daily and/or weekly to assess the efficacy with which the treatments reduces the amplification of HCV RNA levels. Evidence that ezetimibe reduces the amplification HCV levels in vivo, as compared to untreated animals, provides in vivo evidence that ezetimibe is an effective treatment for HCV in patients.

HCVcc = experiment: Secretion of infectious HCVcc, extracellular infectivity titration; assay type: cell-based, Hepatitis C virus (HCV); details: 30 μM, 24-96 hours post-treatment
Experimental: Cell supernatants were serially diluted 10-fold in cDMEM and 100 μl was used to infect, in triplicate, 4×10^3 naïve Huh7 cells per well in 96-well plates (BD Biosciences). The inoculum was incubated with cells for 24 hours at 37° C. and then overlayed with 150 μl complete DMEM containing 0.4% methylcellulose (w/v) (Fluka BioChemika, Switzerland) to give a final concentration of 0.25% methylcellulose. Seventy-two hours post-infection, medium was removed, cells were fixed with 4% paraformaldehyde (Sigma) and immunohistochemical staining for HCV E2 was performed. […] The HCV E2 glycoprotein was detected by incubation at room temperature with 1×PBS containing 0.5% (v/v) TRITON X-100 and 3% (w/v) BSA and a 1:500 dilution of the human monoclonal anti-HCV E2 antibody C1. Bound C1 was subsequently detected by a 1 hour incubation with a 1:1000 dilution of an HRP-conjugated anti-human antibody (Pierce, Rockford, Ill.) followed by a 30 minute incubation with an AEC detection substrate (BD Biosciences). […] Viral infectivity titers are expressed as FFU per milliliter of supernatant (FFU/ml), determined by the average number of E2-positive foci detected in triplicate samples at the highest HCV-positive dilution.
Huh7 cultures were inoculated with HCVcc at an MOI of 0.01 FFU cell-1. […] Infectivity titers are expressed as mean FFU/ml±SD for triplicate samples.

**Q.** What does the source list for O=C1[C@H](CC[C@H](O)c2ccc(F)cc2)[C@@H](c2ccc(O)cc2)N1c1ccc(F)cc1 [ezetimibe, 1-(4-fluorophenyl)-(3R)-[3-(4-fluorophenyl)-(3S)-hydroxypropyl]-(45)-(4-hydroxyphenyl)-2-azetidinone]?
**A.** establishment of HCV infection (serum HCV RNA) (HCV): prevents the establishment of HCV infection; secretion of infectious HCVcc (infectivity titers) (HCVcc): did not inhibit secretion of infectious HCVcc
